Data reported in PubChem BioAssay AID330 (DTP/NCI, 2004).
Several values for one entry are separate records, joined by “and”; a condition that tells them apart may be missing. Equal values may be shown once. Inconclusive results and toxic doses are left out. Rule for the calls: active = survival T/C of 150% or more; inactive = T/C below 125% in these data.

Test system: P388 leukemia ip, CD2F1 mice, survival T/C
Assay: NCI In Vivo Anticancer Drug Screen. Data for tumor model P388 Leukemia (intraperitoneal) in CD2F1 (CDF1) mice
Settings: endpoint: median survival time, higher = longer survival
Summary of the method: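 Mice carrying the transplanted tumor received test compound or vehicle. Survival was recorded in each group, and the value is the treated-group measurement divided by that of the vehicle-treated control group.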

[1] = dose: 50.0 mg/kg/injection, schedule: Q01DX005 (ip), vehicle: Klucel (hydroxypropylcellulose) (HPC)
[2] = dose: 50.0 mg/kg/injection, schedule: Q01DX009 (ip), vehicle: Klucel (hydroxypropylcellulose) (HPC)
[3] = dose: 100.0 mg/kg/injection, schedule: Q01DX009 (ip), vehicle: Klucel (hydroxypropylcellulose) (HPC)
[4] = dose: 200.0 mg/kg/injection, schedule: Q01DX009 (ip), vehicle: Klucel (hydroxypropylcellulose) (HPC)
[5] = dose: 50.0 mg/kg/injection, schedule: Q01DX005 (ip), vehicle: saline with Tween-80
[6] = dose: 100.0 mg/kg/injection, schedule: Q01DX005 (ip), vehicle: saline with Tween-80
[7] = dose: 200.0 mg/kg/injection, schedule: Q01DX005 (ip), vehicle: saline with Tween-80
[8] = dose: 50.0 mg/kg/injection, schedule: Q01DX009 (ip), vehicle: saline with Tween-80
[9] = dose: 100.0 mg/kg/injection, schedule: Q01DX009 (ip), vehicle: saline with Tween-80
[10] = dose: 100.0 mg/kg/injection, schedule: Q01DX005 (ip), vehicle: Klucel (hydroxypropylcellulose) (HPC)
[11] = dose: 200.0 mg/kg/injection, schedule: Q01DX005 (ip), vehicle: Klucel (hydroxypropylcellulose) (HPC)
[12] = dose: 200.0 mg/kg/injection, schedule: Q01DX009 (ip), vehicle: saline with Tween-80
[13] = dose: 200.0 mg/kg/injection, schedule: Q04DX003 (ip), vehicle: saline with Tween-80
[14] = dose: 400.0 mg/kg/injection, schedule: Q01DX009 (ip), vehicle: saline with Tween-80
[15] = dose: 400.0 mg/kg/injection, schedule: Q04DX003 (ip), vehicle: saline with Tween-80
[16] = dose: 60.0 mg/kg/injection, schedule: Q01DX005 (ip), vehicle: Klucel + Tween-80
[17] = dose: 50.0 mg/kg/injection, schedule: Q01DX009 (ip), vehicle: saline

Measured: T/C

Cc1c2cnccc2c(C)c2c1c1ccccc1n2Cc1ccccc1
inactive: dose: 6.25 mg/kg/injection, schedule: Q04DX003 (ip), vehicle: distilled water + Tween-80 97 % of control | dose: 12.5 mg/kg/injection, schedule: Q04DX003 (ip), vehicle: distilled water + Tween-80 95 % of control | dose: 25.0 mg/kg/injection, schedule: Q04DX003 (ip), vehicle: distilled water + Tween-80 95 % of control | dose: 50.0 mg/kg/injection, schedule: Q04DX003 (ip), vehicle: distilled water + Tween-80 95 % of control | dose: 100.0 mg/kg/injection, schedule: Q04DX003 (ip), vehicle: distilled water + Tween-80 99 % of control | dose: 200.0 mg/kg/injection, schedule: Q04DX003 (ip), vehicle: distilled water + Tween-80 94 % of control

NCCc1cc2ccccc2c2ccccc12
inactive: dose: 12.5 mg/kg/injection, schedule: Q01DX005 (ip), vehicle: Klucel (hydroxypropylcellulose) (HPC) 99 % of control | dose: 25.0 mg/kg/injection, schedule: Q01DX005 (ip), vehicle: Klucel (hydroxypropylcellulose) (HPC) 99 % of control | [1] 99 % of control and 95 % of control

C/C(=C\C(=O)Nc1ncn[nH]1)Nc1ncn[nH]1
inactive: [2] 107 % of control | [3] 100 % of control | [4] 100 % of control | dose: 400.0 mg/kg/injection, schedule: Q01DX009 (ip), vehicle: Klucel (hydroxypropylcellulose) (HPC) 99 % of control

Oc1ccc2c3c1OC1C(=NN=C4CCC5(O)C6Cc7ccc(O)c8c7C5(CCN6CC5CC5)C4O8)CCC4(O)C(C2)N(CC2CC2)CCC314 (stereo not given)
inactive: [5] 91 % of control | [6] 98 % of control | [7] 99 % of control

CN1C=CC(C(O)(c2ccccc2)c2ccccc2)CC1 (stereo not given)
inactive: [5] 99 % of control | [6] 97 % of control | [7] 100 % of control

Clc1nc[nH]c1Cl
inactive: dose: 25.0 mg/kg/injection, schedule: Q01DX009 (ip), vehicle: saline with Tween-80 109 % of control | [8] 100 % of control | [9] 98 % of control

Nc1nc(N)c(Cc2ccncc2)cc1Cc1ccncc1
inactive: [1] 112 % of control | [10] 101 % of control | [11] 111 % of control

CC(=O)OCC(=O)[C@@]1(O)CC[C@H]2[C@@H]3CCC4=CC(=O)CC[C@]4(C)[C@@]3(Cl)[C@@H](O)C[C@@]21C
inactive: dose: 88.0 mg/kg/injection, schedule: Q04DX003 (ip), vehicle: saline with Tween-80 123 % of control | [9] 118 % of control | dose: 132.0 mg/kg/injection, schedule: Q04DX003 (ip), vehicle: saline with Tween-80 123 % of control | [12] 90 % of control | [13] 114 % of control | dose: 300.0 mg/kg/injection, schedule: Q04DX003 (ip), vehicle: saline with Tween-80 123 % of control | [14] 100 % of control | [15] 109 % of control

CCCCC(CC)COC(C)=O (stereo not given)
inactive: dose: 100.0 mg/kg/injection, schedule: Q04DX003 (ip), vehicle: saline with Tween-80 104 % of control | [13] 109 % of control | [15] 86 % of control

O=S(=O)(NCCSSCCNS(=O)(=O)c1ccccc1)c1ccccc1
inactive: dose: 25.0 mg/kg/injection, schedule: Q01DX009 (ip), vehicle: other 96 % of control | dose: 50.0 mg/kg/injection, schedule: Q01DX009 (ip), vehicle: other 98 % of control and 105 % of control | dose: 100.0 mg/kg/injection, schedule: Q01DX009 (ip), vehicle: other 110 % of control | dose: 200.0 mg/kg/injection, schedule: Q01DX009 (ip), vehicle: other 103 % of control and 90 % of control

CCOc1ccc(N=Nc2c(C)nn(C(=S)SC)c2OCC)cc1
inactive: [16] 95 % of control | dose: 120.0 mg/kg/injection, schedule: Q01DX005 (ip), vehicle: Klucel + Tween-80 95 % of control | dose: 240.0 mg/kg/injection, schedule: Q01DX005 (ip), vehicle: Klucel + Tween-80 94 % of control

O=C(O)O.[Eu]
inactive: [17] 95 % of control | dose: 200.0 mg/kg/injection, schedule: Q01DX009 (ip), vehicle: saline 93 % of control

c1cc2c(cc1CN1CCOCC1)Sc1cc(CN3CCOCC3)ccc1N2
inactive: dose: 60.0 mg/kg/injection, schedule: Q01DX005 (ip), vehicle: Klucel (hydroxypropylcellulose) (HPC) 96 % of control | dose: 120.0 mg/kg/injection, schedule: Q01DX005 (ip), vehicle: Klucel (hydroxypropylcellulose) (HPC) 89 % of control | dose: 240.0 mg/kg/injection, schedule: Q01DX005 (ip), vehicle: Klucel (hydroxypropylcellulose) (HPC) 92 % of control

Cc1cc(N/N=C/c2ccccn2)nc2c(C)cccc12
inactive: [5] 90 % of control | [6] 91 % of control | [7] 100 % of control

CCOC(=O)c1c(C)c(-c2ccccc2)c(-c2ccccc2)c(C)c1-c1ccccc1
inactive: [8] 97 % of control | [9] 100 % of control | [12] 92 % of control

CSC(=Nc1cccc(C)c1)NC#N
inactive: [2] 103 % of control | [3] 106 % of control | [4] 105 % of control

COc1ccccc1P(=S)(c1ccccc1)c1ccccc1
inactive: [1] 99 % of control | [10] 99 % of control | [11] 96 % of control

CC(C)(C)/C=C/N=NNc1ccccc1C(=O)NC(C)(C)C
inactive: dose: 15.0 mg/kg/injection, schedule: Q01DX005 (ip), vehicle: Klucel + Tween-80 95 % of control | dose: 30.0 mg/kg/injection, schedule: Q01DX005 (ip), vehicle: Klucel + Tween-80 101 % of control | [16] 87 % of control and 89 % of control

O=S(=O)(Nc1ccc(C(F)(F)F)cc1)c1ccc(F)cc1
inactive: dose: 60.0 mg/kg/injection, schedule: Q01DX005 (ip), vehicle: saline with Tween-80 100 % of control | dose: 120.0 mg/kg/injection, schedule: Q01DX005 (ip), vehicle: saline with Tween-80 100 % of control | dose: 240.0 mg/kg/injection, schedule: Q01DX005 (ip), vehicle: saline with Tween-80 104 % of control

CC(=O)[C@H]1CC[C@H]2[C@@H]3CCC4=CC(=O)C=C[C@]4(C)[C@H]3C(=O)C[C@]12C
inactive: [9] 100 % of control | [12] 100 % of control | [14] 100 % of control

O=C1C2Nc3ccccc3N=C2OC1c1ccccc1 (stereo not given)
inactive: [1] 96 % of control | [10] 96 % of control | [11] 100 % of control

O=C(CBr)Oc1ccc([N+](=O)[O-])cc1
inactive: [5] 102 % of control | [6] 100 % of control | [7] 100 % of control

COP(=O)(O)NS(C)(=O)=O
inactive: dose: 25.0 mg/kg/injection, schedule: Q01DX009 (ip), vehicle: saline 100 % of control | [17] 102 % of control | dose: 100.0 mg/kg/injection, schedule: Q01DX009 (ip), vehicle: saline 103 % of control

CN1NC(c2ccc(N(C)C)cc2)(c2ccc(N(C)C)cc2)c2ccc(N(C)C)cc2C1=O
inactive: dose: 100.0 mg/kg/injection, schedule: Q04DX002 (ip), vehicle: saline with Tween-80 90 % of control | dose: 200.0 mg/kg/injection, schedule: Q04DX002 (ip), vehicle: saline with Tween-80 88 % of control | dose: 400.0 mg/kg/injection, schedule: Q04DX002 (ip), vehicle: saline with Tween-80 88 % of control

CCOc1ccc(-n2c(=O)c(N=Nc3ccccc3C)c(O)n(-c3ccc(Br)cc3)c2=S)cc1
inactive: dose: 100.0 mg/kg/injection, schedule: Q01DX001 (ip), vehicle: saline with Tween-80 98 % of control | dose: 200.0 mg/kg/injection, schedule: Q01DX001 (ip), vehicle: saline with Tween-80 92 % of control | dose: 400.0 mg/kg/injection, schedule: Q01DX001 (ip), vehicle: saline with Tween-80 105 % of control

O=C(NC(Cc1ccccc1)C(=O)O)OCc1ccccc1 (stereo not given)
inactive: [1] 100 % of control | [10] 92 % of control | dose: 177.0 mg/kg/injection, schedule: Q01DX009 (ip), vehicle: saline with Tween-80 107 % of control | [11] 102 % of control | dose: 266.0 mg/kg/injection, schedule: Q01DX009 (ip), vehicle: saline with Tween-80 109 % of control | [14] 116 % of control
